Assay results from ChEMBL document CHEMBL3352756, “Synthesis and evaluation of pyrazolines bearing benzothiazole as anti-inflammatory agents” (Bioorg Med Chem, 2014).

Experiments:
Rattus norvegicus [1] = test: Antiinflammatory activity in albino Wistar rat paw edema model assessed as inhibition of carrageenan-induced paw edema at 20 mg/kg, po administered 1 hr prior to carrageenan challenge measured after 3 to 5 hrs by plethysmometry relative to vehicle-treated control; assay type: functional
RAW264.7 [2] = test: Antiinflammatory activity in mouse RAW264.7 cells assessed as inhibition of LPS-induced TNF-alpha release at 20 uM after 24 hrs by ELISA; assay type: functional; conditions: RAW264.7, 24 h
RAW264.7 [3] = test: (§1) Cytotoxicity against mouse RAW264.7 cells assessed as cell viability at 20 uM after 24 hrs by MTT assay in presence of LPS; assay type: cell-based; conditions: raw264.7, 24 h, 20 µM
[4] = as §1; assay type: cell-based; conditions: RAW264.7 cells, read-out: Activity
Rattus norvegicus [5] = test: Toxicity in rat assessed as ulceration at 60 mg/kg, po after 5 hrs; assay type: organism-based; design: dose 60 mg/kg, route oral; conditions: in vivo
Rattus norvegicus [6] = test: Toxicity in rat assessed as damage to epithelial layer of stomach at 60 mg/kg, po after 5 hrs; assay type: organism-based; design: dose 60 mg/kg, route oral; conditions: in vivo

SMILES	inhibition in vivo at 20 mg/kg (Rattus norvegicus [1]) [%]	inhibition at 20 µM (RAW264.7 [2]) [%]	Activity (RAW264.7 [3])	viability at 24 h, 20 µM [4] [%]	Activity (Rattus norvegicus [5])	Activity (Rattus norvegicus [6])
COc1ccc(C2CC(c3ccc(Cl)cc3)=NN2c2nc3ccc(S(N)(=O)=O)cc3s2)cc1 (stereo unspecified)	67.7	38	Toxic	–	–	–
NS(=O)(=O)c1ccc2nc(N3N=C(c4ccc(Cl)cc4)CC3c3ccccc3Cl)sc2c1 (stereo unspecified)	–	38	–	> 90	Non-toxic	Non-toxic
NS(=O)(=O)c1ccc2nc(N3N=C(c4ccc(Cl)cc4)CC3c3ccc(Cl)cc3)sc2c1 (stereo unspecified)	–	38	–	> 90	Non-toxic	Non-toxic
NS(=O)(=O)c1ccc2nc(N3N=C(c4ccc(Cl)cc4)CC3c3ccccc3)sc2c1 (stereo unspecified)	68.3	72.2	–	> 90	Non-toxic	Non-toxic
NS(=O)(=O)c1ccc2nc(N3N=C(c4ccc(Cl)cc4)CC3c3ccc(F)cc3)sc2c1 (stereo unspecified)	–	38	–	86	–	–
Cc1ccc(C2CC(c3ccc(Cl)cc3)=NN2c2nc3ccc(S(N)(=O)=O)cc3s2)cc1 (stereo unspecified)	–	38	–	–	–	–
NS(=O)(=O)c1ccc2nc(N3N=C(c4ccc(Br)cc4)CC3c3ccc(F)cc3)sc2c1 (stereo unspecified)	–	38	–	86	–	–
COc1ccc(C2CC(c3ccc(Br)cc3)=NN2c2nc3ccc(S(N)(=O)=O)cc3s2)cc1 (stereo unspecified)	–	38	–	86	–	–
NS(=O)(=O)c1ccc2nc(N3N=C(c4ccc(Br)cc4)CC3c3ccc(Cl)cc3)sc2c1 (stereo unspecified)	–	71.7	–	90	Non-toxic	Non-toxic
Cc1ccc(-c2cc(C(F)(F)F)nn2-c2ccc(S(N)(=O)=O)cc2)cc1 [CELECOXIB]	67	53.4	–	–	Non-toxic	Non-toxic
